pKi: −log10 of the molar value.
Key:
[1] = test system: Mycobacterium tuberculosis; design: method as in PMID 26061192; details: cited from earlier work
MT-4 cell line = assay: Cytotoxicity in vitro in MT-4 cells (propidium iodide uptake, automatic cell counter); type: cell-based; details: highest concentration tested
Description: We tested the compounds for potential cytotoxicity in the MT-4 cell line using an automatic cell counter (ChemoMetec). The number of live and dead cells was counted in the control cultures, and the cultures were treated with compound (6), (7), or (19). Compounds (6) and (7) were tested at concentrations of 0.136–33 μM (0.035–9 μg/mL), and compound (19) was tested at concentrations of 0.272–66 μM (0.119–28 μg/mL).
We discriminated live from dead cells by evaluating propidium iodide uptake according to the manufacturer’s instructions. We collected and analyzed data using the Nucleoview software (version 1.0,ChemoMetec).

human tonsillar tissue = assay: Toxicity ex vivo in human tonsillar tissue (flow cytometry of cell phenotypes); type: cell-based; details: 12 days culture
Description: The cytotoxicity of compounds (6), (7), and (19) was determined in human tonsillar tissues. A total of 27 tissue blocks were incubated with compound (19) (20 μg/mL) or with compound (6) or (7) ( 5 μg/mL) for each experimental point. Tissue blocks were cultured for 12 days. Then, the cells were isolated from the control and treated and stained with combinations of fluorescence- labeled antibodies against CD3-QD605, CD4- QD655, CD8-QD705, CD25-APC, CD38-PE, HLA-DRAPC- Cy7, CXCR4-Brilliant violet 421, CCR5-PR-Cy5 CD45RA-FITC, and CCR7-PE-Cy7 (Caltag Laboratories; Biolegend). We determined the numbers of cells of different phenotypes in isolated suspensions using flow cytometry as previously described. The volume of an analyzed suspension was controlled by means of Trucount beads (Becton Dickinson); the number of counted cells was normalized to the weight of the tissue fragments used for cell isolation.

[2] = target: T1, HIV-1 reverse transcriptase (p66/p51 heterodimer) (Human immunodeficiency virus type 1 group M subtype B, UniProt P04585); assay: Inhibition of recombinant HIV-1 reverse transcriptase (Dixon's method, noncompetitive); type: biochemical; details: Dixon's method for noncompetitive inhibitors; read-out: Ki (inhibition constant)
T1 construct: recombinant HIV-1 reverse transcriptase (p66/p51 heterodimer); made in house
Description: Isolation of recombinant HIV-1 reverse transcriptase (p66/p51 heterodimer) and determination of its activity were performed as described earlier. The inhibition constant (Ki), calculated according to Dixon’s method for noncompetitive inhibitors, was used as a quantitative measure of the inhibitory activity of the compounds. Nevirapine, a first-generation HIV NNRTI, was used as a control.

Structure (SMILES)	Concentration of total inhibition of mycobacterium growth [1]	Maximum concentration at which neither cytotoxic nor cytostatic effect was observed (MT-4 cell line)	pKi [2]	further results
Cc1cccc(Nc2c[nH]c(=O)[nH]c2=O)c1 [Compound 2]	5 to 40 µg/mL			
Cc1ccc(Nc2c[nH]c(=O)[nH]c2=O)cc1 [Compound 3]	5 to 40 µg/mL			
CCCCc1ccc(Nc2c[nH]c(=O)[nH]c2=O)cc1 [Compound 6]	5 to 40 µg/mL	≥ 33 µM		Cytotoxicity on different cell types in the tissue (T, B, CD4+, CD8+ and CD4+ subgroups) (human tonsillar tissue; 5 μg/mL): lack of significant death rates
CCCCOc1ccc(Nc2c[nH]c(=O)[nH]c2=O)cc1 [Compound 7]	5 to 40 µg/mL	≥ 33 µM		Cytotoxicity on different cell types in the tissue (T, B, CD4+, CD8+ and CD4+ subgroups) (human tonsillar tissue; 5 μg/mL): lack of significant death rates
CCCCc1ccc(Nc2n[nH]c(=O)[nH]c2=O)cc1 [Compound 10]	5 to 40 µg/mL			
O=c1[nH]c(=O)n(C2C=CC(O)C2)cc1Nc1ccc(Oc2ccccc2)cc1 (stereo not drawn) [Compound 15]			3.92	
CCCCOc1ccc(Nc2cn(C3C=CC(O)C3)c(=O)n(C3C=CC(O)C3)c2=O)cc1 (stereo not drawn) [Compound 19]	5 to 40 µg/mL	≥ 66 µM		Cytotoxicity on different cell types in the tissue (T, B, CD4+, CD8+ and CD4+ subgroups) (human tonsillar tissue; 20 μg/mL): lack of significant death rates
O=c1c(Nc2ccccc2)cn(C2C=CC(O)C2)c(=O)n1Cc1ccccc1 (stereo not drawn) [Compound 21, 1-(4’-Hydroxy-2’-cyclopenten-1’-yl)-3-benzyl-5-(phenylamino) uracil]			< 4.00	
Cc1ccc(Nc2cn(C3C=CC(O)C3)c(=O)n(Cc3ccccc3)c2=O)cc1 (stereo not drawn) [Compound 22, 1-(4’-Hydroxy-2’-cyclopenten-1’-yl)-3-benzyl-5-(p-methylphenylamino) uracil]			4.22	
